Data taken from paper PMC11929074, “An in vitro platform for the enzymatic characterization of the rhomboid protease RHBDL4” (The Journal of Biological Chemistry, 2025).
*1 amine or outer side, *2 acyl side, *3 side chain or, on linkers, in order; H or OH if unused. Where a SMILES comes first, the peptide text is derived from it. [ ]: non-standard residue; d: D form. The star is where a group is joined. Pheol(OBn) = c1ccc(COC[C@H](Cc2ccccc2)N*)cc1; NH(4-phenylbutyl) = c1ccc(CCCCN*)cc1; X1 = C[C@H](N[*:1])C(=O)C(=O)[*:2]

Experiments:
[1] = tested on: WT RHBDL4 (recombinant, purified); test: TAMRA-FP competition labelling on recombinant RHBDL4; type: binding, human; settings: in-gel Cy3 fluorescence, compared with inactive RHBDL4-S144A control
From the text: (§1) B, schematic representation of the peptidyl-α-ketoamide scaffold with peptide sequence P5-P1 at the nonprime side and hydrophobic substituent (R) at the prime side. C, schematic representation of the peptidyl-α-ketoamide inhibitor, compound 1a/1b. D, representative inhibition curve derived from measuring rates of RHBDL4 proteolysis of the fluorescent substrate IQ6 with increasing concentrations of compound 1a. E, same as (D), except inhibition curve was derived from using increasing concentrations of compound 1b. […] Reactions were quenched with 1 keLaemmli buffer and loaded on 12% SDS-PAGE gel. Post-transfer membranes were visualized using a fluorescence Cy3 filter and by Western blotting using an α-His antibody. For (A, D, and E), all inhibitors were pre-incubated with RHBDL4 for 1 h and allowed to react with the IQ6 substrate for 2 h.
(§2) B, representative inhibition curve derived from measuring rates of RHBDL4 proteolysis of the fluorescent substrate IQ6 with increasing concentrations of compound 3. C, same as (B), except inhibition curve was derived from using increasing concentrations of compound 4. […] Reactions were quenched with 1 RLaemmli buffer and loaded on 12% SDS-PAGE gel. Post-transfer membranes were visualized using a fluorescence Cy3 filter and by Western blotting using an α-His antibody. E, saturation curve of RHBDL4 using fluorescent substrate, KSp207. For (B and C), all inhibitors were pre-incubated with RHBDL4 for 1 h and allowed to react with the IQ6 substrate for 2 h. […] I assigned them to the substrate KSp207, which is named on the x-axis and in the inset table.

[2] = tested on: RHBDL4-GFP in ER-enriched microsomes of HEK293T cells; test: TAMRA-FP competition label assay in ER-enriched microsomes; type: binding, human; settings: 100 μM compound, 1 h preincubation at 37 °C, then 500 nM TAMRA-FP 2 h at 37 °C; n = 3
Protocol: Figure 6 RHBDL4 inhibition studies in ER-enriched microsomes ER-enriched microsomes were preincubated with 100 μM of compounds or DMSO vehicle control followed by the addition of 500 nM of TAMRA-FP serine hydrolase probe. RHBDL4-GFP was immunoprecipitated with an α-GFP antibody and loaded on SDS-PAGE. TAMRA-FP labeling was analyzed via Cy3 filter followed by Western blotting using α-GFP antibody, n = 3.
ER-enriched microsomes were obtained by hypotonic swelling and centrifugation from Hek293T cells 24 h after transfection. To this end, cells from a subconfluent 15-cm plate were resuspended in isolation buffer (10 mM Hepes-KOH pH 7.4, 1.5 mM MgCl2, 10 mM KCl, EDTA-free complete protease inhibitor cocktail from Roche). After 10 min incubation at 4 °C, cells were lysed by passing six times through a 27-gauge needle. Cellular debris and nuclei were discarded after centrifugation at 1000g for 5 min at 4 °C. The supernatant was spun at 100,000g for 30 min at 4 °C. The membrane pellet was resuspended in 40 μl RM buffer (50 mM Hepes-KOH pH 7.4, 250 mM sucrose, 50 mM KOAc, 2 mM Mg(OAc)2). […] TAMRA-FP-labeling was analyzed in the wet gel with a green light source (535 nm) and a Cy3 filter by detecting fluorescence emission using ImageQuant 800 Fluor CCD imager (Cytiva) followed by Western blotting using an α-GFP antibody (Roche).

recombinant human RHBDL4 = target: T1, recombinant human RHBDL4 (Homo sapiens, UniProt Q8TEB9); test: Inhibition of RHBDL4 proteolysis of IQ6 (FRET-based in vitro assay); type: biochemical; settings: IQ6 substrate; inhibitor pre-incubated with RHBDL4 for 1 h, then reacted with IQ6 for 2 h; triplicate, average ± S.E.M.
T1 construct: The entire RHBDL4 and RHBDL4-S144A cDNAs were subcloned into the pcDNA3.1 vector; 6xHis (C, cleaved yes); made in house; host or cells: Freestyle 293-F cells (transient transfection, pcDNA3.1-HisA)
T1 sequence (Q8TEB9 1-315): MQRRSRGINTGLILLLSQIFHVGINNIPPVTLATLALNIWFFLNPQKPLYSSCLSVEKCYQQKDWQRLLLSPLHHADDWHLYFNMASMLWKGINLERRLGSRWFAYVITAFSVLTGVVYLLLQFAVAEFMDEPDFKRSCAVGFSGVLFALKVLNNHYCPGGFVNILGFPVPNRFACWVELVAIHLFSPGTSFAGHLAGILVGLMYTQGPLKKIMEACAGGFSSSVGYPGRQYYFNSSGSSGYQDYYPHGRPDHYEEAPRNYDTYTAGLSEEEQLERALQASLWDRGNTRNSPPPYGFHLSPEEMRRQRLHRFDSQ
From the text: as §1, §2
The enzymatic assay was performed as previously described (Arutyunova et al., 2014, ([26])). […] The FRET-based cleavage assay was conducted in a fluorescence multiwell plate reader (SynergyMx, BioTek). Upon excitation at 320 nm, the emission intensity at 400 nm was recorded for 2 h at minimal intervals under shaking conditions and plotted using the GraphPad PRISM software. The initial velocities were defined as the slopes of the curve of the generated product as a function of time. The plots of the generated product against the corresponding substrate concentration were fitted with the Michaelis–Menten equation. Catalytic parameters were extrapolated using GraphPad PRISM. […] The samples were desalted using C18 tips (Rainin), eluted in 80% acetonitrile, and dried down in a vacuum centrifuge prior to mass spectrometry analysis.

SMILES | competition with TAMRA-FP probe (fluorescent signal) [1] | TAMRA-FP labeling of RHBDL4-GFP [2] | IC50 (recombinant human RHBDL4) [nM]
CSCC[C@H](NC(=O)[C@H](CCC(N)=O)NC(C)=O)C(=O)N[C@@H](CCC(=O)O)C(=O)N[C@@H](CO)C(=O)N[C@@H](C)C(=O)C(=O)N[C@H](COCc1ccccc1)Cc1ccccc1 [compound 4] (Ac-QMES[X1]-{Pheol(OBn)}) | reduction in overall fluorescent signal | reduced | –
CSCC[C@H](NC(=O)[C@H](CCC(N)=O)NC(C)=O)C(=O)N[C@@H](CCC(=O)O)C(=O)N[C@@H](CO)C(=O)N[C@@H](C)C(=O)C(=O)NCCCCc1ccccc1 [compound 3] (Ac-QMES[X1]-{NH(4-phenylbutyl)}) | reduction in overall fluorescent signal | reduced | 54 ± 13
